Source: patent US20240279214A1, “ALPHA4 BETA7 INEGRIN ANTAGONISTS AND USES THEREOF” (XinThera, Inc., priority 2022, published 2024)

target: T1, a4b7 integrin interaction with MadCAM-1 (Homo sapiens, UniProt P13612+P26010); assay: a4b7 Cell Capture Assay (RPMI8866 cells on MAdCAM-1 Fc coated plates); assay type: cell-based; conditions: 50% human serum, 1 mM MgCl2, 1 hour incubation, CellTiter-Glo luminescence, read-out: a4B7 cell capture assay RMPI8866-MadCAM EC50
T1 construct: capture of a4b7 integrin expressing cells, RPMI8866; endogenous in cells; host or cells: RPMI8866
T1 sequence (P13612 34-1032): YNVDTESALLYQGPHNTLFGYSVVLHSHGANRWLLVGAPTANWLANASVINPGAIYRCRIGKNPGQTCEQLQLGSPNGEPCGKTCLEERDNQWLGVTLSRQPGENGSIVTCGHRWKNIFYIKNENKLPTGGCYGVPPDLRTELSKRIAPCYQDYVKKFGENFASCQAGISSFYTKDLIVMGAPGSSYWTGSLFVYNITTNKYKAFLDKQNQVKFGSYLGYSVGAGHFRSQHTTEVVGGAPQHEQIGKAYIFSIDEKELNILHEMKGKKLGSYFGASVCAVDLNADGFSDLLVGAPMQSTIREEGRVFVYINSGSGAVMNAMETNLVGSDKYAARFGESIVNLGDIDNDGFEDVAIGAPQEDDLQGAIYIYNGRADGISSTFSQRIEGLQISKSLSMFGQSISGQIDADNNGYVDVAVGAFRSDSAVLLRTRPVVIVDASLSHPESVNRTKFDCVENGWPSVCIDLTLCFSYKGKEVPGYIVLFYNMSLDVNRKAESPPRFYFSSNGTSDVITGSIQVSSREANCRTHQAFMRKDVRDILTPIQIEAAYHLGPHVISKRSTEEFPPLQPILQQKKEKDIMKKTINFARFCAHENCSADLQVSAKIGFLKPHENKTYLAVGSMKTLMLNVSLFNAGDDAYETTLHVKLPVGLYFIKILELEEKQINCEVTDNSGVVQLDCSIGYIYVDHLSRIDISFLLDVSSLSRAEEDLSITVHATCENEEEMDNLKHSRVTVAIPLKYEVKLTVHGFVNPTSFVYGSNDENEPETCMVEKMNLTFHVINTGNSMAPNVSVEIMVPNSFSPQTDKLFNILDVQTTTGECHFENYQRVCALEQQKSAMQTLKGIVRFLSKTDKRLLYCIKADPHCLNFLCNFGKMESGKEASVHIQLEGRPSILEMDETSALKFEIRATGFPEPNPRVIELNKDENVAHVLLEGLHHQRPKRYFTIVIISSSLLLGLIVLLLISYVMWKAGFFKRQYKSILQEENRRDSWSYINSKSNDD
T1 sequence (P26010 20-798): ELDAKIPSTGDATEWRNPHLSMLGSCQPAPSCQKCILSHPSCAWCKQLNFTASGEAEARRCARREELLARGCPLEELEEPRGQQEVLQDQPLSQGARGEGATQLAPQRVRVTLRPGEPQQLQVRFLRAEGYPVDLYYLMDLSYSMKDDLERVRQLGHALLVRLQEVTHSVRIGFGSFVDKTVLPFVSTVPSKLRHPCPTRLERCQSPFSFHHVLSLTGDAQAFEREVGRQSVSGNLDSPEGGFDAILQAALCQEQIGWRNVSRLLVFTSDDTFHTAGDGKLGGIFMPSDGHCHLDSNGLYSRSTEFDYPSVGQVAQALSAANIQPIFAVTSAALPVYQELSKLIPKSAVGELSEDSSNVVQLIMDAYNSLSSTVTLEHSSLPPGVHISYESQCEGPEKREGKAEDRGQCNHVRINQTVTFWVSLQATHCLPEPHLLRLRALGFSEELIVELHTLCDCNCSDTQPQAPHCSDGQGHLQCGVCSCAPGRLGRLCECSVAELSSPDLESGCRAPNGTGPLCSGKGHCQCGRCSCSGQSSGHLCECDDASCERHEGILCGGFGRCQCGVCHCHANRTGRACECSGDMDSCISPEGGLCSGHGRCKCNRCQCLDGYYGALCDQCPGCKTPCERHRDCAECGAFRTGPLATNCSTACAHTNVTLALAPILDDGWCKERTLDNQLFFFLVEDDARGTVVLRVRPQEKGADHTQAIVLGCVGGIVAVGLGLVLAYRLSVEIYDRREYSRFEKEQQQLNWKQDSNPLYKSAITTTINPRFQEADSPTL
Description: The potency of inhibitors in preventing a4b7 integrin interaction with MadCAM-1 was measured by monitoring the capture of a4b7 integrin expressing cells, RPMI8866, on recombinant human MAdCAM-1 Fc chimera protein-coated plates. The protein was a fusion between human MAdCAM-1 (Met1-Gln333, Accession #AAY82472) and human IgG1 (Pro100-Lys330)] (R&D Systems, Catalog #6056-MC). 96-well plates (Thermofisher, Catalog #136102) were coated with the recombinant protein by dispensing 100 μL (1.0 μg/mL) per well. After a quick spin to settle down the coating solution using a plate centrifuge, plates were incubated overnight at 4° C. in a moisture chamber. On Day 2, the plates were washed with PBS using a Bluecatbio Blue®Washer (GentleSpin wash, 3 cycles, pressure=1, volume 150 uL). Blocking solution (1.0% BSA in PBS, Sigma, Catalog #A7979) was then added at 200 uL/well, and the plates were quickly spun to settle down blocking buffer and incubated in cell culture incubator at 37° C. and 5% CO2 for 1 hour. The plates were then washed with 0.1% BSA in PBS using a Bluecatbio Blue®Washer (GentleSpin wash, 3 cycles, pressure=1, volume 150 uL). RPMI8866 cells suspended in assay medium (1 mM MgCl2 25 mM HEPES and 50% human serum, Sigma, Catalog #H4522) at a density of 1.0×10^6 cells/mL were added at 100 uL/well. Each compound evaluated was prepared as a DMSO stock solution. Test compounds were evaluated with a 9-point serial dilution curve (1000, 333.3, 111.1, 55.6, 27.8, 13.9, 6.9, 2.3, and 0.77 nM)) and were added to the plates using a Tecan D.30e Digita dispenser, the dispensed stock is 100 nL and the final DMSO concentration is 0.1%. Potent compounds were re-evaluated at a new 9-point serial dilution curve (100, 33.3, 11.1, 5.6, 2.8, 1.4, 0.69, 0.23, and 0.08 nM). Each titration curves were performed in triplicate on the same plate, and most of compounds were retested in different dates multiple times. The plates were shaken at 300 rpm on orbital plate shaker for 3 minutes to mix the cells and compounds, quickly spun to settle the cells and solution, and incubated in cell culture incubator at 37° C. and 5% CO2. After 1 hour incubation, the unbound cells were washed away with RPMI1640 medium supplemented with 1 mM MgCl2 and 1% BSA) (wash buffer) using a Bluecatbio Blue®Washer (MagbeadsSpin wash, 1 cycle, pressure 1, volume=150 uL). After wash buffer removal, A mixture of wash buffer/CellTiter-Glo® Reagent (Pormega, catalog #G7573) at 1:1 (V/V) was added at volume of 100 uL to each well. The plates were placed in a chamber at 25° C. and incubated for 30 minutes. Luminescence was recorded using a Envision plate reader 2105 according to CellTiter-Glo protocol.
The mean luminescence signals from negative control wells without MadCAM-1 coating and compound treatment (cells only) was defined as 100% binding inhibition, and the mean luminescence signals from positive control wells with MadCAM-1 coating but without compound treatment (MadCAM-1 and cells only) was defined as 0% binding inhibition. The luminescence signals from other compound treated wells were normalized in percentage scale accordingly. The normalized mean % inhibition data were plotted against logarithmic compound concentration in nanomolar and were fitted with 4-parameter logistic model to obtain IC50 for each compound.

SMILES	EC50 [nM]
Cc1cccc2c1-c1ccc(F)c(c1)[C@H](CC(=O)O)NC(=O)[C@@H](n1cc(CCN3CC(F)C3)c(C(F)(F)F)cc1=O)c1cc(ccc1F)O2 [Example 32, 2-((5S,8S)-1^4,4^4-difluoro-5-(5-(2-(3-fluoroazetidin-1-yl)ethyl)-2-oxo-4-(trifluoromethyl)pyridin-1(2H)-yl)-2^6-methyl-6-oxo-3-oxa-7-aza-1,4(1,3),2(1,2)-tribenzenacyclooctaphane-8-yl)acetic acid]	0.95
Cc1cc2cc(c1F)[C@H](CC(=O)O)NC(=O)[C@@H](n1cc(CCN(C)C)c(C(F)(F)F)cc1=O)c1cccc(c1)Oc1cccc(C)c1-2 (relative stereo) [Example 23, [(14R*,17S)-14-{5-[2-(dimethylamino)ethyl]-2-oxo-4-(trifluoromethyl)pyridin-1-yl}-19-fluoro-3,20-dimethyl-15-oxo-8-oxa-16-azatetracyclo[16.3.1.1^{9,13}.0^{2,7}]tricosa-1(22),2(7),3,5,9,11,13(23),18,20-nonaen-17-yl]acetic acid]	2.3
Cc1cc2cc(c1F)[C@H](CC(=O)O)NC(=O)[C@@H](n1cc(CCN3CC(F)(F)C3)c(C(F)(F)F)cc1=O)c1cc(ccc1F)COc1cccc(C)c1-2 (single isomer, unassigned) [Example 53]	11
Cc1cc2cc(c1F)[C@H](CC(=O)O)NC(=O)[C@@H](n1cc(CCN3CC(F)C3)c(C(F)(F)F)cc1=O)c1cc(ccc1F)COc1ccc(F)c(C)c1-2 (single isomer, unassigned) [Example 61]	42
Cc1cc2cc(c1F)[C@H](CC(=O)O)NC(=O)[C@@H](n1cc(CCN3CC(F)C3)c(C(F)(F)F)cc1=O)c1cc(ccc1Cl)COc1cccc(C)c1-2 (single isomer, unassigned) [Example 58]	7
Cc1cc2cc(c1F)[C@H](CC(=O)O)NC(=O)[C@@H](n1cc(CCN3CC(F)C3)c(C(F)(F)F)cc1=O)c1cc(ccc1F)Oc1ccc(F)c(C)c1-2 (relative stereo) [Example 30, [(14R*,17S)-4,12,19-trifluoro-14-{5-[2-(3-fluoroazetidin-1-yl)ethyl]-2-oxo-4-(trifluoromethyl)pyridin-1-yl}-3,20-dimethyl-15-oxo-8-oxa-16-azatetracyclo[16.3.1.1^{9,13}.0^{2,7}]tricosa-1(22),2(7),3,5,9,11,13(23),18,20-nonaen-17-yl]acetic acid]	2.6
Cc1ccc(C)c2c1Oc1cccc(c1)[C@H](n1cc(CCN3CC(F)C3)c(C(F)(F)F)cc1=O)C(=O)N[C@@H](CC(=O)O)c1cc-2cc(C(F)(F)F)c1F (relative stereo) [Example 12, [(14R*,17S)-19-fluoro-14-{5-[2-(3-fluoroazetidin-1-yl)ethyl]-2-oxo-4-(trifluoromethyl)pyridin-1-yl}-3,6-dimethyl-15-oxo-20-(trifluoromethyl)-8-oxa-16-azatetracyclo[16.3.1.1^{9,13}.0^{2,7}]tricosa-1(22),2(7),3,5,9,11,13(23),18,20-nonaen-17-yl]acetic acid]	970
Cc1cccc2c1-c1cc(c(F)c(C(F)(F)F)c1)[C@H](CC(=O)O)NC(=O)[C@@H](n1cc(Cl)c(C(F)(F)F)cc1=O)c1cccc(c1)O2 [Example 39, [(17S)-14-[5-chloro-2-oxo-4-(trifluoromethyl)pyridin-1-yl]-19-fluoro-3-methyl-15-oxo-20-(trifluoromethyl)-8-oxa-16-azatetracyclo[16.3.1.1^{9,13}.0^{2,7}]tricosa-1(22),2(7),3,5,9,11,13(23),18,20-nonaen-17-yl]acetic acid]	> 100
Cc1cc2cc(c1F)[C@H](CC(=O)O)NC(=O)[C@@H](n1ccc(C(F)(F)F)cc1=O)c1cc(ccc1F)COc1cccc(C)c1-2 (single isomer, unassigned) [Example 44]	160
Cc1ccc2cc1[C@H](n1cc(CCN3CC(F)C3)c(C(F)(F)F)cc1=O)C(=O)N[C@@H](CC(=O)O)c1cc(cc(C)c1F)-c1c(C)cccc1O2 (single isomer, unassigned) [Example 71]	3.5
Cc1cc2cc(c1F)[C@H](CC(=O)O)NC(=O)[C@@H](n1ccc(C(F)(F)F)cc1=O)c1cc(ccc1F)Oc1cccc(C)c1-2 (single isomer, unassigned) [Example 42]	13
Cc1ccc2c(c1C)-c1cc(C)c(F)c(c1)[C@H](CC(=O)O)NC(=O)[C@@H](n1cc(CCN3CC(F)C3)c(C(F)(F)F)cc1=O)c1cc(ccc1F)CO2 (relative stereo) [Example 51, [(15R*,18S)-13,20-difluoro-15-{5-[2-(3-fluoroazetidin-1-yl)ethyl]-2-oxo-4-(trifluoromethyl)pyridin-1-yl}-3,4,21-trimethyl-16-oxo-8-oxa-17-azatetracyclo[17.3.1.1^{10,14}.0^{2,7}]tetracosa-1(23),2(7),3,5,10,12,14(24),19,21-nonaen-18-yl]acetic acid]	990
Cc1cc2cc(c1F)[C@H](CC(=O)O)NC(=O)[C@@H](n1cc(CCN3CC(F)C3)c(C(F)(F)F)cc1=O)c1cc(ccc1F)Oc1nn(C)cc1-2 (single isomer, unassigned) [Example 43]	480
